Assay results reported in patent publication EP0093376B2, “1-Sulfo-2-azetidinone derivatives, their production and use” (Takeda Chemical Industries, Ltd., priority 1982, dated 1983).
≈ marks a conversion by molar mass, not a printed value.

Experiments:
Assay type in all cases: cell-based
[1] = tested on: Enterobacter cloacae IFO 12937; experiment: MIC by agar dilution method (Experimental Example); conditions: IFO12937; test organism (1) Enterobacter cloacae IFO 12937; Trypticase soy agar; inoculum about 10^8 CFU/ml; overnight culture at 37°C; complete growth inhibition
Protocol: (§1) The MIC of each test compound was determined by the agar dilution method. Thus, a stock aqueous solution of each test compound is serially diluted and the resultant dilution series are put in petri dishes. Then, 9.0 ml of Trypticase soy agar per dish is added and mixed. Each of the agar plates is smeared with a suspension of the test organism (about 10^8 CFU/ml). After overnight culture at 37°C, the minimum concentration of the test compound that caused a complete growth inhibition of the organism is taken as the MIC (minimal inhibitory concentration) value.
(§2) • (1) Enterobacter cloacae IFO 12937 • (2) Klebsiella pneumoniae TN 1711

[2] = tested on: Klebsiella pneumoniae TN 1711; experiment: MIC by agar dilution method (Experimental Example); conditions: TN1711; test organism (2) Klebsiella pneumoniae TN 1711; Trypticase soy agar; inoculum about 10^8 CFU/ml; overnight culture at 37°C; complete growth inhibition
Protocol: as §1, §2

[3] = tested on: Enterobacter cloacae IFO 12937; experiment: MIC by agar dilution method (Test Example); conditions: IFO12937; test organism (1) Enterobacter cloacae IFO 12937; Trypticase soy agar; inoculum about 10^6 CFU/ml; overnight at 37°C
Protocol: (§3) The MIC values for the test compounds were determined by the agar dilution method. Thus, 1.0 ml of each serially diluted aqueous solution of each test compound was poured into a petri dish. Then, 9.0 ml of Trypticase soy agar was added and mixed with the aqueous solution. A suspension of the test organism (about 10^6 CFU/ml) was smeared onto the mixed agar plate and incubated overnight at 37°C.
(§4) • (1) Enterobacter cloacae IFO 12937 • (2) Klebsiella pneumoniae TN 1711 • (3) Pseudomonas aeruginosa GN 3407

[4] = tested on: Pseudomonas aeruginosa GN 3407; experiment: MIC by agar dilution method (Test Example); conditions: GN3407; test organism (3) Pseudomonas aeruginosa GN 3407; Trypticase soy agar; inoculum about 10^6 CFU/ml; overnight at 37°C
Protocol: as §3, §4

[5] = tested on: Klebsiella pneumoniae TN 1711; experiment: MIC by agar dilution method (Test Example); conditions: TN1711; test organism (2) Klebsiella pneumoniae TN 1711; Trypticase soy agar; inoculum about 10^6 CFU/ml; overnight at 37°C
Protocol: as §3, §4

SMILES	MIC [1] [µg/mL]	MIC [2] [µg/mL]	MIC [3] [µg/mL]	MIC [4] [µg/mL]	MIC [5] [µg/mL]
CC(C)(O/N=C(\C(=O)N[C@@H]1C(=O)N(S(=O)(=O)[O-])[C@@H]1C[n+]1ccccc1)c1csc(N)n1)C(=O)O (relative stereo) [Monosodium cis-3-[2-(2-amino-4-thiazolyl)-2-(Z)-(1-carboxylato-1-methylethoxyimino)acetamido]-4-pyridiniomethyl-2-azetidinone-1-sulfonate]	3.13	12.5			
CO/N=C(\C(=O)N[C@@H]1C(=O)N(S(=O)(=O)O)[C@@H]1C(N)=O)c1csc(N)n1 (relative stereo) [Sodium cis-3-[2-(2-amino-4-thiazolyl)-2-(Z)-methoxyiminoacetamido]-4-carbamoyl-2-azetidinone-1-sulfonate]	1.56	0.39			
COC(=O)CC[C@@H]1[C@H](NC(=O)/C(=N\OC(C)(C)C(=O)O)c2csc(N)n2)C(=O)N1S(=O)(=O)O (relative stereo) [cis-3-[2-(2-Amino-4-thiazolyl)-2-(Z)-(1-carboxy-1-methylethoxyamino)acetamido]-4-(2-methoxy-carbonylethyl)-2-azetidinone-1-sulfonic acid]	6.25 (≈ 12.3 µM)	3.13 (≈ 6.17 µM)			
COC[C@@H]1[C@H](NC(=O)/C(=N\OC(C)(C)C(=O)O)c2csc(N)n2)C(=O)N1S(=O)(=O)O (relative stereo) [cis-3-[2-(2-Amino-4-thiazolyl)-2-(Z)-(1-carboxy-1-methylethoxyimino)acetamido]-4-methoxymethyl-2-azetidinone-1-sulfonic acid]	1.56 (≈ 3.35 µM)	0.2 (≈ 0.43 µM)			
CC(C)(O/N=C(\C(=O)N[C@@H]1C(=O)N(S(=O)(=O)O)[C@@H]1CS(C)(=O)=O)c1csc(N)n1)C(=O)O (relative stereo) [cis-3-[2-(2-Amino-4-thiazolyl)-2-(Z)-(1-carboxy-1-methylethoxyimino)acetamido]-4-methylsulfonyl-methyl-2-azetidinone-1-sulfonic acid]	12.5 (≈ 24.3 µM)	1.56 (≈ 3.04 µM)			
CC(C)(O/N=C(\C(=O)N[C@@H]1C(=O)N(S(=O)(=O)O)[C@@H]1CNC(N)=O)c1csc(N)n1)C(=O)O (relative stereo) [cis-3-[2-(2-Amino-4-thiazolyl)-2-(Z)-(1-carboxy-1-methylethoxyimino)acetamido]-4-ureidomethyl-2-azetidinone-1-sulfonic acid]	12.5 (≈ 25.3 µM)	3.13 (≈ 6.34 µM)			
C[S+]([O-])C[C@@H]1[C@H](NC(=O)/C(=N\OC(C)(C)C(=O)O)c2csc(N)n2)C(=O)N1S(=O)(=O)O (relative stereo) [cis-3-[2-(2-Amino-4-thiazolyl)-2-(Z)-(1-carboxy-1-methylethoxyimino]acetamido]-4-methylsulfinyl-methyl-2-azetidinone-1-sulfonic acid]	3.13 (≈ 6.29 µM)	0.78 (≈ 1.57 µM)			
COC[C@@H]1[C@H](NC(=O)/C(=N\OCC(=O)O)c2csc(N)n2)C(=O)N1S(=O)(=O)O (relative stereo) [cis-3-[2-(2-Amino-4-thiazolyl)-2-(Z)-carboxy-methoxyiminoacetamido]-4-methoxymethyl-2-azetidinone-1-sulfonic acid]	3.13 (≈ 7.16 µM)	0.1 (≈ 0.229 µM)			
NC(=O)OC[C@@H]1[C@H](NC(=O)/C(=N\OCC(=O)O)c2csc(N)n2)C(=O)N1S(=O)(=O)O [Example 2']			0.05 (≈ 0.107 µM)	1.56 (≈ 3.34 µM)	0.05 (≈ 0.107 µM)
CC(C)(O/N=C(\C(=O)N[C@@H]1C(=O)N(S(=O)(=O)O)[C@@H]1COC(N)=O)c1csc(N)n1)C(=O)O [Example 4']			0.39 (≈ 0.789 µM)	6.25 (≈ 12.6 µM)	0.1 (≈ 0.202 µM)
CCC[C@H]1[C@H](NC(=O)/C(=N\OC(C)(C)C(=O)O)c2csc(N)n2)C(=O)N1S(=O)(=O)O [Sodium [3S,4S]-3-[(2-(2-aminothiazol-4-yl)-2-(Z)-(1-carboxy-1-methylethoxyimino)acetamido]-4-propyl-2-azetidinone-1-sulfonate]	12.5	0.78			
CC(=O)CC1C(NC(=O)C(=NOC(C)(C)C(=O)O)c2csc(N)n2)C(=O)N1S(=O)(=O)O (centres unmarked) [Sodium [3S,4S]-3-[(2-(2-aminothiazol-4-yl)-2-(Z)-(1-carboxy-1-methylethoxyimino]acetamido]-4-(2-oxopropyl)-2-azetidinone-1-sulfonate]	12.5	3.13			
CON=C(C(=O)NC1C(=O)N(S(=O)(=O)O)C1CC(C)=O)c1csc(N)n1 (stereo not drawn) [Sodium [3S,4S]-cis-3-[(2-(2-aminothiazol-4-yl)-2-(Z)-methoxyimino]acetamido]-4-(2-oxopropyl)-2-azetidinone-1-sulfonate]	3.13	3.13			
CO/N=C(\C(=O)N[C@@H]1C(=O)N(S(=O)(=O)O)[C@H]1CC(C)=O)c1csc(N)n1 [Sodium [3S, 4S]-trans-3-[2-(2-aminothiazol-4-yl]-2-(Z)-methoxyimino]acetamido]-4-(2-oxopropyl)-2-azetidinone-1-sulfonate]	6.25				
